Several values for one entry are separate records, joined by “and”; a condition that tells them apart may be missing. Identical values can stand only once. Starred links: 1 amine or outer side, 2 acyl side, 3 side chain; linkers in the order of their positions; H or OH if unused. Non-standard residues stand in square brackets, D forms with d. Residues, ends and D or L forms follow the SMILES beside them. Groups on a side chain read outwards from the residue. *: point of attachment. C20 diacid = O=C(O)CCCCCCCCCCCCCCCCCCC(=O)*; C18 diacid = O=C(O)CCCCCCCCCCCCCCCCC(=O)*; γGlu = O=C(O)[C@H](CCC(=O)[*:2])N[*:1]; αMeF = C[C@](N)(Cc1ccccc1)C(=O)O; AEEA = NCCOCCOCC(=O)O; Aib = CC(C)(N)C(=O)O
Columns and labels:
[1] = molecular target: human GLP-1 receptor (hGLP-1R) (Homo sapiens, UniProt P43220); test: cAMP production (HTRF) in CHO cells expressing hGLP-1R; assay type: cell-based; design: expressed in transfected cells; settings: for EC50: Table 6, peptides modified at position 17, cAMP in CHO hGLP-1R cells, geometric mean, read-out: hGLP-1R EC50; for % Relative Potency Ratio: Table 6, % GLP-1R activity relative to GLP-1 / % GlucR activity relative to glucagon
How it was run: (§1)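 Potency values represent EC50 from 4-parameter logistic curves of HTRF % Delta F signal. Receptor-expressing CHO cells (hGCGR 2×10^5 cells/mL, hGLP-1R 1×10^5 cells/mL) were exposed for 30 min at room temperature before two-step cAMP detection.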

[2] = molecular target: human glucagon receptor (hGCGR) (Homo sapiens, UniProt P47871); test: cAMP production (HTRF) in CHO cells expressing hGCGR; assay type: cell-based; design: expressed in transfected cells; settings: Table 6, peptides modified at position 17; cAMP in CHO hGCGR cells; geometric mean; read-out: hGluc-R EC50
How it was run: as §1

human glucagon receptor (hGCGR), sequence (P47871 26-477): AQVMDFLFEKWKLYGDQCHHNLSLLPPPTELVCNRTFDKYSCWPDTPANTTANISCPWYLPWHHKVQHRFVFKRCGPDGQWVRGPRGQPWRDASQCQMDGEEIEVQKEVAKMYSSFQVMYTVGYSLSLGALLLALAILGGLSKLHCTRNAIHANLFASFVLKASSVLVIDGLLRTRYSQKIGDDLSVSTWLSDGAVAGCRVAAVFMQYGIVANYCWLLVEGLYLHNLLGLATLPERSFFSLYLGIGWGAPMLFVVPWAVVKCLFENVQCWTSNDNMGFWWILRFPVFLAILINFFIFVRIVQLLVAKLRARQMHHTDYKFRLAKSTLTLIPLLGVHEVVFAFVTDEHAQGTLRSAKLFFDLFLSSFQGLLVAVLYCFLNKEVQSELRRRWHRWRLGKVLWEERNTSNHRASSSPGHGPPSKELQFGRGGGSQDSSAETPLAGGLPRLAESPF
human GLP-1 receptor (hGLP-1R), sequence (P43220 24-463): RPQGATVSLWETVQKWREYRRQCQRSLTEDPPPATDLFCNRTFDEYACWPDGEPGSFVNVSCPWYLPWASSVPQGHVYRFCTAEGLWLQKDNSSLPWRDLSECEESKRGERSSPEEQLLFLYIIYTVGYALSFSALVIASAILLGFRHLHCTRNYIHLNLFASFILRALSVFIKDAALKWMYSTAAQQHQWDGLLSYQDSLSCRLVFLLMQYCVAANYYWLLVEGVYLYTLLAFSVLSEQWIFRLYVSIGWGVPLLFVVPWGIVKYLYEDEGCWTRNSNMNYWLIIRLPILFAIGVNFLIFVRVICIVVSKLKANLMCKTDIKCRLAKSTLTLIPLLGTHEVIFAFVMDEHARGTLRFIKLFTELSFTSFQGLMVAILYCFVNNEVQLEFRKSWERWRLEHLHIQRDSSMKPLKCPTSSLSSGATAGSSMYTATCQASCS

SMILES	EC50 [1]	% Relative Potency Ratio [1]	EC50 [2]
CC(C)C[C@H](NC(=O)[C@H](Cc1c[nH]c2ccccc12)NC(=O)[C@H](CCCNC(=N)N)NC(=O)[C@@H](NC(=O)[C@H](Cc1ccccc1)NC(=O)[C@H](CC(=O)O)NC(=O)[C@H](CCC(N)=O)NC(=O)[C@H](C)NC(=O)[C@H](CCCNC(=N)N)NC(=O)[C@H](CCCCNC(=O)COCCOCCNC(=O)COCCOCCNC(=O)CC[C@H](NC(=O)CCCCCCCCCCCCCCCCCCC(=O)O)C(=O)O)NC(=O)[C@H](CO)NC(=O)[C@H](CC(=O)O)NC(=O)[C@H](CC(C)C)NC(=O)[C@](C)(Cc1ccccc1)NC(=O)[C@H](CCCCN)NC(=O)[C@H](CO)NC(=O)[C@@H](NC(=O)[C@H](CC(=O)O)NC(=O)[C@H](CO)NC(=O)[C@@H](NC(=O)[C@H](Cc1ccccc1)NC(=O)[C@@H](NC(=O)CNC(=O)[C@H](CCC(N)=O)NC(=O)C(C)(C)NC(=O)[C@@H](N)Cc1c[nH]cn1)[C@@H](C)O)[C@@H](C)O)C(C)C)C(C)C)C(=O)N[C@@H](CC(C)C)C(=O)NC(C)(C)C(=O)N[C@H](C(=O)N[C@@H](CCC(=O)O)C(=O)O)[C@@H](C)O [Peptide 151] (H-H[Aib]QGTFTSDVSK[αMeF]LDSK([AEEA-AEEA-γGlu-C20 diacid])RAQDFVRWLL[Aib]TE-OH; N-terminus assumed)	0.111 nM	3.2	0.178 nM
CC(C)C[C@H](NC(=O)[C@H](Cc1c[nH]c2ccccc12)NC(=O)[C@H](CCCNC(=N)N)NC(=O)[C@@H](NC(=O)[C@H](Cc1ccccc1)NC(=O)[C@H](CC(=O)O)NC(=O)[C@H](CCC(N)=O)NC(=O)[C@H](C)NC(=O)[C@H](CCCNC(=N)N)NC(=O)[C@H](CCCCNC(=O)COCCOCCNC(=O)COCCOCCNC(=O)CC[C@H](NC(=O)CCCCCCCCCCCCCCCCC(=O)O)C(=O)O)NC(=O)[C@H](CO)NC(=O)[C@H](CC(=O)O)NC(=O)[C@H](CC(C)C)NC(=O)[C@](C)(Cc1ccccc1)NC(=O)[C@H](CCCCN)NC(=O)[C@H](CO)NC(=O)[C@@H](NC(=O)[C@H](CC(=O)O)NC(=O)[C@H](CO)NC(=O)[C@@H](NC(=O)[C@H](Cc1ccccc1)NC(=O)[C@@H](NC(=O)CNC(=O)[C@H](CCC(N)=O)NC(=O)C(C)(C)NC(=O)[C@@H](N)Cc1c[nH]cn1)[C@@H](C)O)[C@@H](C)O)C(C)C)C(C)C)C(=O)N[C@@H](CC(C)C)C(=O)NC(C)(C)C(=O)N[C@@H](CCC(=O)O)C(=O)O [Peptide 152] (H-H[Aib]QGTFTSDVSK[αMeF]LDSK([AEEA-AEEA-γGlu-C18 diacid])RAQDFVRWLL[Aib]E-OH; N-terminus assumed)	0.0119 nM	3.4	0.0204 nM
CC(C)C[C@H](NC(=O)[C@H](Cc1c[nH]c2ccccc12)NC(=O)[C@H](CCCNC(=N)N)NC(=O)[C@@H](NC(=O)[C@H](Cc1ccccc1)NC(=O)[C@H](CC(=O)O)NC(=O)[C@H](CCC(N)=O)NC(=O)[C@H](C)NC(=O)[C@H](CCCNC(=N)N)NC(=O)[C@H](CCCCNC(=O)COCCOCCNC(=O)COCCOCCNC(=O)CC[C@H](NC(=O)CCCCCCCCCCCCCCCCCCC(=O)O)C(=O)O)NC(=O)[C@H](CO)NC(=O)[C@H](CC(=O)O)NC(=O)[C@H](CC(C)C)NC(=O)[C@](C)(Cc1ccccc1)NC(=O)[C@H](CCCCN)NC(=O)[C@H](CO)NC(=O)[C@@H](NC(=O)[C@H](CC(=O)O)NC(=O)[C@H](CO)NC(=O)[C@@H](NC(=O)[C@H](Cc1ccccc1)NC(=O)[C@@H](NC(=O)CNC(=O)[C@H](CCC(N)=O)NC(=O)C(C)(C)NC(=O)[C@@H](N)Cc1c[nH]cn1)[C@@H](C)O)[C@@H](C)O)C(C)C)C(C)C)C(=O)N[C@@H](CC(C)C)C(=O)NC(C)(C)C(=O)N[C@@H](CCC(=O)O)C(=O)O [Peptide 153] (H-H[Aib]QGTFTSDVSK[αMeF]LDSK([AEEA-AEEA-γGlu-C20 diacid])RAQDFVRWLL[Aib]E-OH; N-terminus assumed)	0.0412 nM	4.8	0.099 nM
CC(C)C[C@H](NC(=O)[C@H](Cc1c[nH]c2ccccc12)NC(=O)[C@H](CCCNC(=N)N)NC(=O)[C@@H](NC(=O)[C@H](Cc1ccccc1)NC(=O)[C@H](CC(=O)O)NC(=O)[C@H](CCC(N)=O)NC(=O)[C@H](C)NC(=O)[C@H](CCCNC(=N)N)NC(=O)[C@H](CCCCNC(=O)COCCOCCNC(=O)COCCOCCNC(=O)CC[C@H](NC(=O)CCCCCCCCCCCCCCCCCCC(=O)O)C(=O)O)NC(=O)[C@H](CO)NC(=O)[C@H](CC(=O)O)NC(=O)[C@H](CC(C)C)NC(=O)[C@](C)(Cc1ccccc1)NC(=O)[C@H](CCCCN)NC(=O)[C@H](CO)NC(=O)[C@@H](NC(=O)[C@H](CC(=O)O)NC(=O)[C@H](CO)NC(=O)[C@@H](NC(=O)[C@H](Cc1ccccc1)NC(=O)[C@@H](NC(=O)CNC(=O)[C@H](CCC(N)=O)NC(=O)C(C)(C)NC(=O)[C@@H](N)Cc1c[nH]cn1)[C@@H](C)O)[C@@H](C)O)C(C)C)C(C)C)C(=O)N[C@@H](CC(C)C)C(=O)N[C@@H](CCC(=O)O)C(=O)NC(C)(C)C(=O)NCC(=O)O [Peptide 158] (H-H[Aib]QGTFTSDVSK[αMeF]LDSK([AEEA-AEEA-γGlu-C20 diacid])RAQDFVRWLLE[Aib]G-OH; N-terminus assumed)	0.304 nM	2.2	0.333 nM
CC(C)C[C@H](NC(=O)[C@H](Cc1c[nH]c2ccccc12)NC(=O)[C@H](CCCNC(=N)N)NC(=O)[C@@H](NC(=O)[C@H](Cc1ccccc1)NC(=O)[C@H](CC(=O)O)NC(=O)[C@H](CCC(N)=O)NC(=O)[C@H](C)NC(=O)[C@H](CCCNC(=N)N)NC(=O)[C@H](CCCCNC(=O)COCCOCCNC(=O)COCCOCCNC(=O)CC[C@H](NC(=O)CCCCCCCCCCCCCCCCCCC(=O)O)C(=O)O)NC(=O)[C@@H](NC(=O)[C@H](CC(=O)O)NC(=O)[C@H](CC(C)C)NC(=O)[C@](C)(Cc1ccccc1)NC(=O)[C@H](CCCCN)NC(=O)[C@H](CO)NC(=O)[C@@H](NC(=O)[C@H](CC(=O)O)NC(=O)[C@H](CO)NC(=O)[C@@H](NC(=O)[C@H](Cc1ccccc1)NC(=O)[C@@H](NC(=O)CNC(=O)[C@H](CCC(N)=O)NC(=O)C(C)(C)NC(=O)[C@@H](N)Cc1c[nH]cn1)[C@@H](C)O)[C@@H](C)O)C(C)C)[C@@H](C)O)C(C)C)C(=O)N[C@@H](CC(C)C)C(=O)N[C@@H](CCC(=O)O)C(=O)NC(C)(C)C(=O)NCC(=O)O [Peptide 159]	0.145 nM	2.0	0.145 nM
CC(C)C[C@H](NC(=O)[C@H](Cc1c[nH]c2ccccc12)NC(=O)[C@H](CCCNC(=N)N)NC(=O)[C@@H](NC(=O)[C@H](Cc1ccccc1)NC(=O)[C@H](CC(=O)O)NC(=O)[C@H](CCC(N)=O)NC(=O)[C@H](C)NC(=O)[C@H](CCCNC(=N)N)NC(=O)[C@H](CCCCNC(=O)COCCOCCNC(=O)COCCOCCNC(=O)CC[C@H](NC(=O)CCCCCCCCCCCCCCCCC(=O)O)C(=O)O)NC(=O)[C@H](CO)NC(=O)[C@H](CCC(=O)O)NC(=O)[C@H](CC(C)C)NC(=O)[C@](C)(Cc1ccccc1)NC(=O)[C@H](CCCCN)NC(=O)[C@H](CO)NC(=O)[C@@H](NC(=O)[C@H](CC(=O)O)NC(=O)[C@H](CO)NC(=O)[C@@H](NC(=O)[C@H](Cc1ccccc1)NC(=O)[C@@H](NC(=O)CNC(=O)[C@H](CCC(N)=O)NC(=O)C(C)(C)NC(=O)[C@@H](N)Cc1c[nH]cn1)[C@@H](C)O)[C@@H](C)O)C(C)C)C(C)C)C(=O)N[C@@H](CC(C)C)C(=O)N[C@@H](CCC(=O)O)C(=O)NC(C)(C)C(=O)NCC(=O)O [Peptide 160] (H-H[Aib]QGTFTSDVSK[αMeF]LESK([AEEA-AEEA-γGlu-C18 diacid])RAQDFVRWLLE[Aib]G-OH)	0.0552 nM	14.9	0.417 nM
CC(C)C[C@H](NC(=O)[C@H](Cc1c[nH]c2ccccc12)NC(=O)[C@H](C)NC(=O)[C@@H](NC(=O)[C@H](Cc1ccccc1)NC(=O)[C@H](CC(=O)O)NC(=O)[C@H](CCCNC(=N)N)NC(=O)[C@H](C)NC(=O)[C@H](CCCNC(=N)N)NC(=O)[C@H](CCCCNC(=O)COCCOCCNC(=O)COCCOCCNC(=O)CC[C@H](NC(=O)CCCCCCCCCCCCCCCCC(=O)O)C(=O)O)NC(=O)[C@H](C)NC(=O)[C@H](CCC(=O)O)NC(=O)[C@H](CC(C)C)NC(=O)[C@](C)(Cc1ccccc1)NC(=O)[C@H](CCCCN)NC(=O)[C@H](CO)NC(=O)[C@@H](NC(=O)[C@H](CC(=O)O)NC(=O)[C@H](CO)NC(=O)[C@@H](NC(=O)[C@H](Cc1ccccc1)NC(=O)[C@@H](NC(=O)CNC(=O)[C@H](CCC(N)=O)NC(=O)C(C)(C)NC(=O)[C@@H](N)Cc1c[nH]cn1)[C@@H](C)O)[C@@H](C)O)C(C)C)C(C)C)C(=O)N[C@@H](CC(C)C)C(=O)N[C@@H](CCC(=O)O)C(=O)NC(C)(C)C(=O)NCC(=O)O [Peptide 161] (H-H[Aib]QGTFTSDVSK[αMeF]LEAK([AEEA-AEEA-γGlu-C18 diacid])RARDFVAWLLE[Aib]G-OH)	0.0172 nM and 0.0509 nM	21.6 and 40.0	0.188 nM and 1.03 nM
CC[C@H](C)[C@H](NC(=O)[C@H](Cc1c[nH]c2ccccc12)NC(=O)[C@H](CCCNC(=N)N)NC(=O)[C@@H](NC(=O)[C@H](Cc1ccccc1)NC(=O)[C@H](CC(=O)O)NC(=O)[C@H](CCC(N)=O)NC(=O)[C@H](C)NC(=O)[C@H](CCCNC(=N)N)NC(=O)[C@H](CCCCNC(=O)COCCOCCNC(=O)COCCOCCNC(=O)CC[C@H](NC(=O)CCCCCCCCCCCCCCCCC(=O)O)C(=O)O)NC(=O)[C@H](CO)NC(=O)[C@H](CC(=O)O)NC(=O)[C@H](CC(C)C)NC(=O)[C@](C)(Cc1ccccc1)NC(=O)[C@H](CCCCN)NC(=O)[C@H](CO)NC(=O)[C@@H](NC(=O)[C@H](CC(=O)O)NC(=O)[C@H](CO)NC(=O)[C@@H](NC(=O)[C@H](Cc1ccccc1)NC(=O)[C@@H](NC(=O)CNC(=O)[C@H](CCC(N)=O)NC(=O)C(C)(C)NC(=O)[C@@H](N)Cc1c[nH]cn1)[C@@H](C)O)[C@@H](C)O)C(C)C)C(C)C)C(=O)N[C@@H](C)C(=O)NC(C)(C)C(=O)N[C@H](C(=O)N[C@@H](CCC(=O)O)C(=O)O)[C@@H](C)O [Peptide 162] (H-H[Aib]QGTFTSDVSK[αMeF]LDSK([AEEA-AEEA-γGlu-C18 diacid])RAQDFVRWIA[Aib]TE-OH; N-terminus assumed)	0.0596 nM	34.1	1.03 nM

— patent US20250353891A1 (MEDIMMUNE LIMITED, priority 2022, published 2025)
